Where two headings read alike, the source gives them in different places.
Legend:
[1] = from C=CCCCCN(C(=O)[C@@H]1C[C@@H](O)C[C@H]1C(=O)N[C@]1(C(=O)OCC)C[C@H]1C=C)c1ccccc1; rcm bond; Hoveyda-Grubbs 2nd generation; DCE; 0.167 mM; 83.0 °C; 16.0 h
[2] = target: NS3/NS4 complexes (Hepatitis C virus genotype 1a, UniProt P27958); test: NS3/NS4 inhibition assay (IC50); assay type: biochemical; conditions: NS3/NS4 activity; 23° C., 25 μM NS4A peptide
How it was run: (§1)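 Read-outs are IC50 for inhibition of the NS3/NS4 complex and EC50 in an HCV replicon system. Biochemical runs use 23° C. and a 50 mM Tris-HCl (pH 7.5) buffer with 15% glycerol, 10 mM DTT, 0.6 mM LDAO and 25 μM NS4A peptide.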

[3] = test system: hepatitis C replicon; test: hepatitis C replicon EC50 assay; assay type: cell-based; conditions: Hepatitis C virus
How it was run: as §1

[4] = hepatitis C replicon, read-out: EC50

Chain of NS3/NS4 complexes (P27958 1027-1657, one chain of several): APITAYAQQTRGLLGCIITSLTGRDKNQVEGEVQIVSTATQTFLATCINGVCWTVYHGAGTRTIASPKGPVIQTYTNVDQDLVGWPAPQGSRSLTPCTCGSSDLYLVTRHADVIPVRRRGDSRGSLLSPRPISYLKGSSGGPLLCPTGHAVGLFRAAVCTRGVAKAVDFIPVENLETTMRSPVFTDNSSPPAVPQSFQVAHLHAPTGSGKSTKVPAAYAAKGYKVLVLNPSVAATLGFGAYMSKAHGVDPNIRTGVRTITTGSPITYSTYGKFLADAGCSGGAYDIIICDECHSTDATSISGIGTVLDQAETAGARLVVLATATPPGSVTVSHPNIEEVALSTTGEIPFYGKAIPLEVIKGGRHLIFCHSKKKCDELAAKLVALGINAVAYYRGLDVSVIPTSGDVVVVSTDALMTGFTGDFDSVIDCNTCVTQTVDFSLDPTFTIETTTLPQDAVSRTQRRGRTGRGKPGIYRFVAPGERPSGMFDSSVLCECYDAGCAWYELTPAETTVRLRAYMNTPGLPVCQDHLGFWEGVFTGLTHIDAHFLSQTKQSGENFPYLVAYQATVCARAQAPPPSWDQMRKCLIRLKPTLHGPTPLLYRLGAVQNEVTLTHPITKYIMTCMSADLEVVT

| Compound | ring closure, yield of all isomers [1] [%] | IC50 [2] [nM] | EC50 [3, 4] [nM] | EC50 [3] [nM] |
| --- | --- | --- | --- | --- |
| CCOC(=O)[C@@]12C[C@H]1C=CCCCCN(c1ccccc1)C(=O)[C@@H]1C[C@@H](O)C[C@H]1C(=O)N2 | 94.6 | – | – | – |
| Cc1sc(-c2cccc3c2nc(O[C@@H]2C[C@H]4C(=O)N[C@]5(C(=O)NS(=O)(=O)N(C)C)C[C@H]5/C=C\CCCCC[C@H](NC(=O)OC(C)(C)C)C(=O)N4C2)n3C(C)C)nc1Cc1ccccc1 [Compound 1216] | – | < 10 | < 10 | – |
| CC(C)n1c(O[C@@H]2C[C@H]3C(=O)N[C@]4(C(=O)NS(=O)(=O)N(C)C)C[C@H]4/C=C\CCCCC[C@H](NC(=O)OC(C)(C)C)C(=O)N3C2)nc2c(-c3nc(C4CCCCC4)cs3)cccc21 [Compound 1770] | – | < 10 | 10 to 100 | – |
| CC(C)NC(=O)Nc1cccc2c1nc(O[C@@H]1C[C@H]3C(=O)N[C@]4(C(=O)NS(=O)(=O)N(C)C)C[C@H]4/C=C\CCCCC[C@H](NC(=O)OC(C)(C)C)C(=O)N3C1)n2C(C)C [Compound 1421] | – | < 10 | < 10 | – |
| CC(C)n1c(O[C@@H]2C[C@H]3C(=O)N[C@]4(C(=O)NS(=O)(=O)N(C)C)C[C@H]4/C=C\CCCCC[C@H](NC(=O)OC(C)(C)C)C(=O)N3C2)nc2c(-c3nc(-c4ccccc4F)cs3)cccc21 [Compound 1747] | – | < 10 | 10 to 100 | – |
| CC(C)n1c(O[C@@H]2C[C@H]3C(=O)N[C@]4(C(=O)NS(=O)(=O)C5(C)CC5)C[C@H]4/C=C\CCCCC[C@H](NC(=O)OC(C)(C)C)C(=O)N3C2)nc2c(-c3nc(C4CCCC4)cs3)cccc21 [Compound 1402] | – | < 10 | < 10 | – |
| CC(C)c1csc(-c2cccc3c2nc(O[C@@H]2C[C@H]4C(=O)N[C@]5(C(=O)NS(=O)(=O)C6CC6)C[C@H]5/C=C\CCCCC[C@H](NC(=O)OC(C)(C)C)C(=O)N4C2)n3C(C)C)n1 [Compound 218] | – | < 10 | < 10 | – |
| CC(C)n1c(O[C@@H]2C[C@H]3C(=O)N[C@]4(C(=O)NS(=O)(=O)C5(C)CC5)C[C@H]4/C=C\CCCCC[C@H](NC(=O)OC(C)(C)C)C(=O)N3C2)nc2c(-c3nc(CC4CCCCC4)cs3)cccc21 [Compound 1773] | – | < 10 | < 10 | – |
| CC(C)n1c(O[C@@H]2C[C@H]3C(=O)N[C@]4(C(=O)NS(=O)(=O)C5(C)CC5)C[C@H]4/C=C\CCCCC[C@H](NC(=O)N4CCCC4)C(=O)N3C2)nc2c(-c3nc(-c4ccccc4)cs3)cccc21 [Compound 1732] | – | < 10 | < 10 | – |
| COc1ccc2c(O[C@@H]3C[C@H]4C(=O)N[C@]5(C(=O)NS(=O)(=O)C6(C)CC6)C[C@H]5/C=C\CCCCC[C@H](Nc5cccc(C(=O)N6CCN(c7cccc(C(F)(F)F)c7)CC6)c5)C(=O)N4C3)cc(-c3nc(C(C)C)cs3)nc2c1C [Compound 124] | – | < 10 | 10 to 100 | – |
| CC(C)(C)OC(=O)N[C@H]1CCCCC/C=C\[C@@H]2C[C@@]2(C(=O)NS(=O)(=O)C2CC2)NC(=O)[C@@H]2C[C@@H](Oc3ncc4ncn(Cc5ccccc5)c4n3)CN2C1=O [Compound 506] | – | < 10 | > 100 | – |
| CC(C)n1c(O[C@@H]2C[C@H]3C(=O)N[C@]4(C(=O)NS(=O)(=O)N(C)C)C[C@H]4/C=C\CCCCC[C@H](NC(=O)OC(C)(C)C)C(=O)N3C2)nc2c(NC(=O)NCCc3ccccc3)cccc21 [Compound 1424] | – | < 10 | – | < 10 |
| COc1cccc2c1nc(O[C@@H]1C[C@H]3C(=O)N[C@]4(C(=O)NS(=O)(=O)C5(C)CC5)C[C@H]4/C=C\CCCCC[C@H](Nc4ccccc4)C(=O)N3C1)n2C(C)C [Compound 285] | – | < 10 | < 10 | – |
| CC(C)n1c(O[C@@H]2C[C@H]3C(=O)N[C@]4(C(=O)NS(=O)(=O)C5(C)CC5)C[C@H]4/C=C\CCCCC[C@H](Nc4cc(F)cc(C(F)(F)F)c4)C(=O)N3C2)nc2cncnc21 [Compound 503] | – | < 10 | 10 to 100 | – |
| Cc1ccc(-c2csc(-c3cccc4c3nc(O[C@@H]3C[C@H]5C(=O)N[C@]6(C(=O)NS(=O)(=O)C7(C)CC7)C[C@H]6/C=C\CCCCC[C@H](NC(=O)OC(C)(C)C)C(=O)N5C3)n4C(C)C)n2)cc1 [Compound 1709] | – | < 10 | 10 to 100 | – |
| CC(C)n1c(O[C@@H]2C[C@H]3C(=O)N[C@]4(C(=O)NS(=O)(=O)C5(C)CC5)C[C@H]4/C=C\CCCCC[C@H](NC(=O)OC(C)(C)C)C(=O)N3C2)nc2c(-c3nc(-c4ccccc4)cs3)cccc21 [Compound 1708] | – | < 10 | < 10 | – |
| CC(C)n1c(O[C@@H]2C[C@H]3C(=O)N[C@]4(C(=O)NS(=O)(=O)N5CCC5)C[C@H]4/C=C\CCCCC[C@H](NC(=O)OC(C)(C)C)C(=O)N3C2)nc2c(-c3nc(C4CCCC4)cs3)cccc21 [Compound 1745] | – | < 10 | 10 to 100 | – |

| Compound | ring closure, yield of all isomers [1] [%] | IC50 [2] [nM] | EC50 [3, 4] [nM] | EC50 [3] [nM] |
| --- | --- | --- | --- | --- |
| CC(C)n1c(O[C@@H]2C[C@H]3C(=O)N[C@]4(C(=O)NS(=O)(=O)C5(C)CC5)C[C@H]4/C=C\CCCCC[C@H](NC(=O)OC(C)(C)C)C(=O)N3C2)nc2c(-c3nc4c(s3)CCC4)cccc21 [Compound 1765] | – | < 10 | < 10 | – |
| CC(C)n1c(O[C@@H]2C[C@H]3C(=O)N[C@]4(C(=O)NS(=O)(=O)C5CC5)C[C@H]4/C=C\CCCCC[C@H](NC(=O)OC(C)(C)C)C(=O)N3C2)nc2c(-c3cncs3)cccc21 [Compound 223] | – | < 10 | < 10 | – |
| CC(C)n1c(O[C@@H]2C[C@H]3C(=O)N[C@]4(C(=O)NS(=O)(=O)N(C)C)C[C@H]4/C=C\CCCCC[C@H](NC(=O)OC(C)(C)C)C(=O)N3C2)nc2c(-c3nc(C4CC4)cs3)cccc21 [Compound 1776] | – | < 10 | < 10 | – |
| CC(C)NC(=O)Nc1cccc2c1nc(O[C@@H]1C[C@H]3C(=O)N[C@]4(C(=O)NS(=O)(=O)C5(C)CC5)C[C@H]4/C=C\CCCCC[C@H](Nc4ccccc4)C(=O)N3C1)n2C(C)C [Compound 1407] | – | < 10 | 10 to 100 | – |
| CC(C)n1c(O[C@@H]2C[C@H]3C(=O)N[C@]4(C(=O)NS(=O)(=O)N(C)C)C[C@H]4/C=C\CCCCC[C@H](NC(=O)OC(C)(C)C)C(=O)N3C2)nc2c(-c3ccccc3F)cccc21 [Compound 261] | – | < 10 | 10 to 100 | – |
| CC(C)n1c(O[C@@H]2C[C@H]3C(=O)N[C@]4(C(=O)NS(=O)(=O)N(C)C)C[C@H]4/C=C\CCCCC[C@H](NC(=O)OC(C)(C)C)C(=O)N3C2)nc2c(-c3nc(-c4ccccn4)cs3)cccc21 [Compound 1735] | – | < 10 | < 10 | – |
| Cc1nc2cc(O[C@@H]3C[C@H]4C(=O)N[C@]5(C(=O)NS(=O)(=O)C6(C)CC6)C[C@H]5/C=C\CCCCC[C@H](NC(=O)OC(C)(C)C)C(=O)N4C3)ccc2o1 [Compound 1251] | – | < 10 | 10 to 100 | – |
| COc1ccc2c(O[C@@H]3C[C@H]4C(=O)N[C@]5(C(=O)NS(=O)(=O)C6(C)CC6)C[C@H]5/C=C\CCCCC[C@H](Nc5cccc(NC(=O)N6CCOCC6)c5)C(=O)N4C3)cc(-c3nc(C(C)C)cs3)nc2c1C [Compound 127] | – | < 10 | < 10 | – |
| C=Cc1cccc2c1nc(O[C@@H]1C[C@H]3C(=O)N[C@]4(C(=O)NS(=O)(=O)C5CC5)C[C@H]4/C=C\CCCCC[C@H](NC(=O)OC(C)(C)C)C(=O)N3C1)n2C(C)C [Compound 225] | – | < 10 | < 10 | – |
| Cc1sc(-c2c(F)ccc3c2nc(O[C@@H]2C[C@H]4C(=O)N[C@]5(C(=O)NS(=O)(=O)N(C)C)C[C@H]5/C=C\CCCCC[C@H](NC(=O)OC(C)(C)C)C(=O)N4C2)n3C(C)C)nc1C(C)C [Compound 1219] | – | < 10 | < 10 | – |
| CC(C)c1cccc2c1nc(O[C@@H]1C[C@H]3C(=O)N[C@]4(C(=O)NS(=O)(=O)C5(C)CC5)C[C@H]4/C=C\CCCCC[C@H](Nc4ccccc4)C(=O)N3C1)n2C(C)C [Compound 201] | – | < 10 | 10 to 100 | – |
| Cc1cccc(Cc2csc(-c3cccc4c3nc(O[C@@H]3C[C@H]5C(=O)N[C@]6(C(=O)NS(=O)(=O)C7(C)CC7)C[C@H]6/C=C\CCCCC[C@H](NC(=O)OC(C)(C)C)C(=O)N5C3)n4C(C)C)n2)c1 [Compound 1718] | – | < 10 | < 10 | – |
| CNC(=O)c1cccc2c1nc(O[C@@H]1C[C@H]3C(=O)N[C@]4(C(=O)NS(=O)(=O)N(C)C)C[C@H]4/C=C\CCCCC[C@H](NC(=O)OC(C)(C)C)C(=O)N3C1)n2C(C)C [Compound 278] | – | < 10 | 10 to 100 | – |
| CCc1nc2ccccc2nc1O[C@@H]1C[C@H]2C(=O)N[C@]3(C(=O)NS(=O)(=O)C4(C)CC4)C[C@H]3/C=C\CCCCC[C@H](Nc3ccccc3)C(=O)N2C1 [Compound 312] | – | < 10 | 10 to 100 | – |
| COc1ccc(-c2csc(-c3cccc4c3nc(O[C@@H]3C[C@H]5C(=O)N[C@]6(C(=O)NS(=O)(=O)N(C)C)C[C@H]6/C=C\CCCCC[C@H](NC(=O)OC(C)(C)C)C(=O)N5C3)n4C(C)C)n2)cc1 [Compound 1752] | – | < 10 | 10 to 100 | – |
| COc1ccc2c(O[C@@H]3C[C@H]4C(=O)N[C@]5(C(=O)NS(=O)(=O)C6(C)CC6)C[C@H]5/C=C\CCCCC[C@H](Nc5cccc(C(=O)N6CCN(C)CC6)c5)C(=O)N4C3)cc(-c3nc(C(C)C)cs3)nc2c1C [Compound 104] | – | < 10 | < 10 | – |
| CC(C)n1c(O[C@@H]2C[C@H]3C(=O)N[C@]4(C(=O)NS(=O)(=O)C5(C)CC5)C[C@H]4/C=C\CCCCC[C@H](Nc4ccccc4)C(=O)N3C2)nc2c(-c3ccccc3)cccc21 [Compound 203] | – | < 10 | 10 to 100 | – |
